According to patent US20120220562A1, “Anti-Viral Compounds” (ABBOTT LABAORATORIES, priority 2011, published 2012):

What was measured:
HCV 1b-Con1 replicon = HCV 1b-Con1 replicon assay in the presence of 5% FBS; assay type: cell-based; conditions: Hepatitis C virus
[1] = AUC value (pharmacokinetics); conditions: in vivo
[2] = test system: HCV 2a, 2b, 3a and 4a replicons; experiment: HCV 2a, 2b, 3a and 4a replicon assays in the absence of human plasma; assay type: cell-based
Method: The inhibitory effects of the compounds of the invention on HCV replication can be determined by measuring activity of the luciferase reporter gene. For example, replicon-containing cells can be seeded into 96 well plates at a density of 5000 cells per well in 100 μl DMEM containing 5% FBS. The following day compounds can be diluted in dimethyl sulfoxide (DMSO) to generate a 200× stock in a series of eight half-log dilutions. The dilution series can then be further diluted 100-fold in the medium containing 5% FBS. Medium with the inhibitor is added to the overnight cell culture plates already containing 100 μl of DMEM with 5% FBS. In assays measuring inhibitory activity in the presence of human plasma, the medium from the overnight cell culture plates can be replaced with DMEM containing 40% human plasma and 5% FBS. […] Luciferin solution (100 μl, Promega) can be added to each well, and luciferase activity can be measured with a Victor II luminometer (Perkin-Elmer). The percent inhibition of HCV RNA replication can be calculated for each compound concentration and the EC50 value can be calculated using nonlinear regression curve fitting to the 4-parameter logistic equation and GraphPal Prism 4 software.

SMILES	EC50 (HCV 1b-Con1 replicon)	further results
COC(=O)N[C@H](C(=O)N1CCC[C@H]1c1nc2cc([C@H]3CC[C@H](c4cc5[nH]c([C@@H]6CCCN6C(=O)[C@@H](NC(=O)OC)C(C)C)nc5cc4F)N3c3ccc(C(C)(C)C)cc3)c(F)cc2[nH]1)C(C)C [Example 6.1, methyl {(2S)-1-[(2S)-2-{5-[(2R,5R)-1-(4-tert-butylphenyl)-5-{5-fluoro-2-[(2S)-1-{(2S)-2-[(methoxycarbonyl)amino]-3-methylbutanoyl}pyrrolidin-2-yl]-1H-benzimidazol-6-yl}pyrrolidin-2-yl]-6-fluoro-1H-benzimidazol-2-yl}pyrrolidin-1-yl]-3-methyl-1-oxobutan-2-yl}carbamate]	< 0.1 nM	AUC value, fold greater than that of Example 109 of the '301 application [1]: about 9 fold
COC(=O)N[C@H](C(=O)N1CCC[C@H]1c1nc2cc([C@H]3CC[C@H](c4ccc5[nH]c([C@@H]6CCCN6C(=O)[C@@H](NC(=O)OC)C(C)C)nc5c4)N3c3ccc(N4CCC(c5ccccc5)CC4)c(F)c3)ccc2[nH]1)C(C)C [Example 3.20, methyl {(2S)-1-[(2S)-2-{5-[(2R,5R)-1-[3-fluoro-4-(4-phenylpiperidin-1-yl)phenyl]-5-{2-[(2S)-1-{(2S)-2-[(methoxycarbonyl)amino]-3-methylbutanoyl}pyrrolidin-2-yl]-1H-benzimidazol-5-yl}pyrrolidin-2-yl]-1H-benzimidazol-2-yl}pyrrolidin-1-yl]-3-methyl-1-oxobutan-2-yl}carbamate]	< 0.1 nM	EC50 values, fold less than those of Example 4.25 [2]: at least 15 fold
COC(=O)N[C@H](C(=O)N1CCC[C@H]1c1nc2cc([C@H]3CC[C@H](c4ccc5[nH]c([C@@H]6CCCN6C(=O)[C@@H](NC(=O)OC)C(C)C)nc5c4)N3c3cc(F)c(N4CCC(c5ccccc5)CC4)c(F)c3)ccc2[nH]1)C(C)C [Example 5.1, methyl {(2S)-1-[(2S)-2-{5-[(2R,5R)-1-[3,5-difluoro-4-(4-phenylpiperidin-1-yl)phenyl]-5-{2-[(2S)-1-{(2S)-2-[(methoxycarbonyl)amino]-3-methylbutanoyl}pyrrolidin-2-yl]-1H-benzimidazol-5-yl}pyrrolidin-2-yl]-1H-benzimidazol-2-yl}pyrrolidin-1-yl]-3-methyl-1-oxobutan-2-yl}carbamate]	< 0.1 nM	EC50 values, fold less than those of Example 4.25 [2]: at least 50 fold; AUC value, fold greater than that of Example 2.9 [1]: about 30 fold
COC(=O)N[C@H](C(=O)N1[C@H](c2nc3cc([C@H]4CC[C@H](c5ccc6[nH]c([C@@H]7C[C@@H]8CCC[C@@H]8N7C(=O)[C@@H](NC(=O)OC)C(C)C)nc6c5)N4c4cc(F)c(N5CCC(c6ccccc6)CC5)c(F)c4)ccc3[nH]2)C[C@@H]2CCC[C@@H]21)C(C)C [Example 3.28, methyl {(2S)-1-[(2S,3aS,6aS)-2-{5-[(2R,5R)-1-[3,5-difluoro-4-(4-phenylpiperidin-1-yl)phenyl]-5-{2-[(2S,3aS,6aS)-1-{(2S)-2-[(methoxycarbonyl)amino]-3-methylbutanoyl}octahydrocyclopenta[b]pyrrol-2-yl]-1H-benzimidazol-5-yl}pyrrolidin-2-yl]-1H-benzimidazol-2-yl}hexahydrocyclopenta[b]pyrrol-1(2H)-yl]-3-methyl-1-oxobutan-2-yl}carbamate]	< 0.1 nM	
COC(=O)N[C@H](C(=O)N1CCC[C@H]1C(=O)Nc1ccc(C2CC[C@@H](c3ccc(NC(=O)[C@@H]4CCCN4C(=O)[C@@H](NC(=O)OC)C(C)C)cc3)N2c2cc(F)c(N3CCC(c4ccccc4)CC3)c(F)c2)cc1)C(C)C (stereo partly drawn) [Example 8, dimethyl ({(2S)-1-[3,5-difluoro-4-(4-phenylpiperidin-1-yl)phenyl]pyrrolidine-2,5-diyl}bis{4,1-phenylenecarbamoyl(2S)pyrrolidine-2,1-diyl[(2S)-3-methyl-1-oxobutane-1,2-diyl]})biscarbamate]	< 0.1 nM	
COC(=O)N[C@H](C(=O)N1CCC[C@H]1c1nc2cc([C@H]3CC[C@H](c4ccc5[nH]c([C@@H]6CCCN6C(=O)[C@@H](NC(=O)OC)C6CCCC6)nc5c4)N3c3cc(F)c(N4CCC(c5ccccc5)CC4)c(F)c3)ccc2[nH]1)C1CCCC1 [Example 3.24, dimethyl ({(2R,5R)-1-[3,5-difluoro-4-(4-phenylpiperidin-1-yl)phenyl]pyrrolidine-2,5-diyl}bis{1H-benzimidazole-5,2-diyl(2S)pyrrolidine-2,1-diyl[(1S)-1-cyclopentyl-2-oxoethane-2,1-diyl]})biscarbamate]	< 0.1 nM	
COC(=O)N[C@H](C(=O)N1CCC[C@H]1c1nc2c(F)c([C@H]3CC[C@H](c4ccc5nc([C@@H]6CCCN6C(=O)[C@@H](NC(=O)OC)C(C)C)[nH]c5c4F)N3c3ccc(C(C)(C)C)cc3)ccc2[nH]1)C(C)C [Example 6.3, methyl {(2S)-1-[(2S)-2-{5-[(2R,5R)-1-(4-tert-butylphenyl)-5-{7-fluoro-2-[(2S)-1-{(2S)-2-[(methoxycarbonyl)amino]-3-methylbutanoyl}pyrrolidin-2-yl]-1H-benzimidazol-6-yl}pyrrolidin-2-yl]-4-fluoro-1H-benzimidazol-2-yl}pyrrolidin-1-yl]-3-methyl-1-oxobutan-2-yl}carbamate]	< 0.1 nM	
COC(=O)N[C@H](C(=O)N1CCC[C@H]1c1nc2cc([C@H]3CC[C@H](c4ccc5[nH]c([C@@H]6CCCN6C(=O)[C@@H](NC(=O)OC)C(C)C)nc5c4)N3c3ccc(Oc4ccccc4)cc3)ccc2[nH]1)C(C)C [Example 1.1, methyl {(2S)-1-[(2S)-2-{5-[(2R,5R)-5-{2-[(2S)-1-{(2S)-2-[(methoxycarbonyl)amino]-3-methylbutanoyl}pyrrolidin-2-yl]-1H-benzimidazol-5-yl}-1-(4-phenoxyphenyl)pyrrolidin-2-yl]-1H-benzimidazol-2-yl}pyrrolidin-1-yl]-3-methyl-1-oxobutan-2-yl}carbamate]	< 0.1 nM	
COC(=O)N[C@H](C(=O)N1CCC[C@H]1c1nc2cc([C@H]3CC[C@@H](c4cc5nc([C@@H]6CCCN6C(=O)[C@@H](NC(=O)OC)C(C)C)[nH]c5cc4F)N3c3cnc(N4CCCCC4)nc3)c(F)cc2[nH]1)C(C)C [Example 3.47, methyl {(2S)-1-[(2S)-2-(6-fluoro-5-{(2R,5S)-5-{6-fluoro-2-[(2S)-1-{(2S)-2-[(methoxycarbonyl)amino]-3-methylbutanoyl}pyrrolidin-2-yl]-1H-benzimidazol-5-yl}-1-[2-(piperidin-1-yl)pyrimidin-5-yl]pyrrolidin-2-yl}-1H-benzimidazol-2-yl)pyrrolidin-1-yl]-3-methyl-1-oxobutan-2-yl}carbamate]	< 0.1 nM	
COC(=O)N[C@H](C(=O)N1CCC[C@H]1c1nc2cc(F)c([C@H]3CC[C@H](c4cc5[nH]c([C@@H]6CCCN6C(=O)[C@@H](NC(=O)OC)C6CCCC6)nc5cc4F)N3c3cc(F)c(N4CCN(c5ccc(C(F)(F)F)cc5)CC4)c(F)c3)cc2[nH]1)C1CCCC1 [Example 4.45, dimethyl ([(2R,5R)-1-(3,5-difluoro-4-{4-[4-(trifluoromethyl)phenyl]piperazin-1-yl}phenyl)pyrrolidine-2,5-diyl]bis{(5-fluoro-1H-benzimidazole-6,2-diyl)(2S)pyrrolidine-2,1-diyl[(1S)-1-cyclopentyl-2-oxoethane-2,1-diyl]})bis carbamate]	< 0.1 nM	
COC(=O)N[C@H](C(=O)N1CCC[C@H]1c1nc2cc([C@H]3CC[C@H](c4ccc5[nH]c([C@@H]6CCCN6C(=O)[C@@H](NC(=O)OC)C6CCOCC6)nc5c4)N3c3cc(F)c(N4CCC(C)(C)CC4)c(F)c3)ccc2[nH]1)C1CCOCC1 [Example 4.23, dimethyl ({(2R,5R)-1-[4-(4,4-dimethylpiperidin-1-yl)-3,5-difluorophenyl]pyrrolidine-2,5-diyl}bis{1H-benzimidazole-5,2-diyl(2S)pyrrolidine-2,1-diyl[(1S)-2-oxo-1-(tetrahydro-2H-pyran-4-yl)ethane-2,1-diyl]})biscarbamate]	< 0.1 nM	
COC(=O)N[C@H](C(=O)N1CCC[C@H]1c1nc2ccc([C@H]3CC[C@H](c4ccc5nc([C@@H]6CCCN6C(=O)[C@@H](NC(=O)OC)C(C)C)[nH]c5c4)N3c3cc(F)c(N4CCC(c5ccc([Si](C)(C)C)cc5)CC4)c(F)c3)cc2[nH]1)C(C)C [Example 2.14, methyl {(2S)-1-[(2S)-2-{5-[(2R,5R)-1-(3,5-difluoro-4-{4-[4-(trimethylsilyl)phenyl]piperidin-1-yl}phenyl)-5-{2-[(2S)-1-{(2S)-2-[(methoxycarbonyl)amino]-3-methylbutanoyl}pyrrolidin-2-yl]-1H-benzimidazol-5-yl}pyrrolidin-2-yl]-1H-benzimidazol-2-yl}pyrrolidin-1-yl]-3-methyl-1-oxobutan-2-yl}carbamate]	< 0.1 nM	
